Experimental data from patent publication EP1949908A1, “Combined use of derivatives of GLP-1 analogs and PPAR ligands” (NOVO NORDISK A/S, priority 2001, dated 2002).

Tested on: male ZDF rat
Assay: Four weeks treatment of overtly diabetic male ZDF rats: HbA1c and 24-hour glucose profile
Assay type: in vivo
Conditions: mean±SEM, n=10, propionic acid compound 1 mg/kg oral gavage once daily, GLP-1 derivative 50 µg/kg subcutaneously twice daily
Experimental: Ninety male ZDF rats aged 15-16 weeks were used in the study. Before treatment start, measurements of glucose and HbA1c were performed. All animals were overtly diabetic at the beginning of the study. Animals were allocated into the following 4 treatment groups:
(-)-2-Ethoxy-3-(4-(2-phenoxazin-10-yl-ethoxy)-phenyl)-propionic acid and Vehicle-1 were administered by oral gavage once daily at approx. 07:30. Arg^34, Lys^26(N^ε-(γ-Glu(N^α-hexadecanoyl)))-GLP-1 (7-37) and Vehicle-2 were administered subcutaneously twice daily at approx. 07:30 and 14:30.
After four weeks treatment, HbA1c was measured and 24-hour glucose profiles were assessed.
Delta HbA1c refers to the numerical difference between the measurement after treatment and the measurement before treatment. Glucose24hAUC refers to the total area under the glucose concentration curve during the 24-hour period. A two-way analysis of variance was performed for each parameter and the significance of the interaction term evaluated.

For `CCOC(Cc1ccc(OCCN2c3ccccc3Oc3ccccc32)cc1)C(=O)O` (single isomer, unassigned; (-)) [(-)-2-ethoxy-3-(4-(2-phenoxazin-10-yl-ethoxy)-phenyl)-propionic acid], the “Delta HbA1c” value (after four weeks treatment minus before treatment) was -0.81±0.36 % points and the Glucose24hAUC (total area under the glucose concentration curve during 24-hour period after four weeks treatment) was 456 ± 38 mM·h.
